Tests used:
Experiment in all cases: relative viability (nuclei count vs DMSO), 5 days (fraction); higher = more cells survive
[1] = system: BEN
How it was run: (§1)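 The day after seeding in 1536-well plates, lung cancer cell lines were treated by pin tool with a single drug, or with a fixed anchor-drug dose together with five library-drug doses (not always all listed) in √10 steps. After 5 days, a combined fix-and-stain solution (final 0.05% Triton X-100, 1% formaldehyde, 1 ug/ml Hoechst) was added. Nuclei counted on 4× images gave relative viability as treated counts over vehicle counts, reported as the median of duplicate plates.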

[2] = system: NCI-H441
How it was run: as §1

[3] = system: NCI-H23
How it was run: as §1

[4] = system: NCI-H727
How it was run: as §1

[5] = system: NCI-H2087
How it was run: as §1

[6] = system: NCI-H2023
How it was run: as §1

[7] = system: NCI-H2347
How it was run: as §1

[8] = system: LOU-NH91
How it was run: as §1

[9] = system: NCI-H1993
How it was run: as §1

[10] = system: EMC-BAC-2
How it was run: as §1

[11] = system: HARA
How it was run: as §1

[12] = system: HCC-44
How it was run: as §1

[13] = system: NCI-H522
How it was run: as §1

[14] = system: NCI-H838
How it was run: as §1

[15] = system: NCI-H647
How it was run: as §1

[16] = system: NCI-H3122
How it was run: as §1

[17] = system: NCI-H650
How it was run: as §1

[18] = system: NCI-H1395
How it was run: as §1

[19] = system: NCI-H596
How it was run: as §1

[20] = system: NCI-H2126
How it was run: as §1

[21] = system: 201T
How it was run: as §1

[22] = system: LCLC-103H
How it was run: as §1

O=c1cc(-c2cccc3c2Sc2ccccc2S3)oc(N2CCOCC2)c1 + Cc1cc(Nc2cc(N3CCN(C)CC3)nc(Sc3ccc(NC(=O)C4CC4)cc3)n2)n[nH]1 [Tozasertib] (partner 0.1 µM)
relative viability ([1]; first compound 0.08 µM): 0.724 | relative viability ([1]; first compound 0.253 µM): 0.487 | relative viability ([1]; first compound 0.8 µM): 0.423 | relative viability ([1]; first compound 2.53 µM): 0.456 | relative viability ([1]; first compound 8 µM): 0.617 | relative viability ([2]; first compound 0.08 µM): 0.686 | relative viability ([2]; first compound 0.253 µM): 0.693 | relative viability ([2]; first compound 0.8 µM): 0.793 | relative viability ([2]; first compound 2.53 µM): 0.598 | relative viability ([2]; first compound 8 µM): 0.632 | relative viability ([3]; first compound 0.08 µM): 0.629 | relative viability ([3]; first compound 0.253 µM): 0.341 | relative viability ([3]; first compound 0.8 µM): 0.357 | relative viability ([3]; first compound 2.53 µM): 0.296 | relative viability ([3]; first compound 8 µM): 0.283 | relative viability ([4]; first compound 0.08 µM): 0.656 | relative viability ([4]; first compound 0.253 µM): 0.633 | relative viability ([4]; first compound 0.8 µM): 0.609 | relative viability ([4]; first compound 2.53 µM): 0.535 | relative viability ([4]; first compound 8 µM): 0.668 | relative viability ([5]; first compound 0.08 µM): 0.231 | relative viability ([5]; first compound 0.253 µM): 0.282 | relative viability ([5]; first compound 0.8 µM): 0.266 | relative viability ([5]; first compound 2.53 µM): 0.191 | relative viability ([5]; first compound 8 µM): 0.171 | relative viability ([6]; first compound 0.08 µM): 0.309 | relative viability ([6]; first compound 0.253 µM): 0.295 | relative viability ([6]; first compound 0.8 µM): 0.302 | relative viability ([6]; first compound 2.53 µM): 0.216 | relative viability ([6]; first compound 8 µM): 0.247 | relative viability ([7]; first compound 0.08 µM): 0.668 | relative viability ([7]; first compound 0.253 µM): 0.605 | relative viability ([7]; first compound 0.8 µM): 0.351 | relative viability ([7]; first compound 2.53 µM): 0.53 | relative viability ([7]; first compound 8 µM): 0.404 | relative viability ([8]; first compound 0.08 µM): 0.652 | relative viability ([8]; first compound 0.253 µM): 0.678 | relative viability ([8]; first compound 0.8 µM): 0.638 | relative viability ([8]; first compound 2.53 µM): 0.568 | relative viability ([8]; first compound 8 µM): 0.679 | relative viability ([9]; first compound 0.08 µM): 0.518 | relative viability ([9]; first compound 0.253 µM): 0.55 | relative viability ([9]; first compound 0.8 µM): 0.516 | relative viability ([9]; first compound 2.53 µM): 0.559 | relative viability ([9]; first compound 8 µM): 0.621 | relative viability ([10]; first compound 0.08 µM): 0.242 | relative viability ([10]; first compound 0.253 µM): 0.299 | relative viability ([10]; first compound 0.8 µM): 0.295 | relative viability ([10]; first compound 2.53 µM): 0.257 | relative viability ([10]; first compound 8 µM): 0.293 | relative viability ([11]; first compound 0.08 µM): 0.099 | relative viability ([11]; first compound 0.253 µM): 0.0933 | relative viability ([11]; first compound 0.8 µM): 0.112 | relative viability ([11]; first compound 2.53 µM): 0.133 | relative viability ([11]; first compound 8 µM): 0.0897 | relative viability ([12]; first compound 0.08 µM): 0.888 | relative viability ([12]; first compound 0.253 µM): 1.01 | relative viability ([12]; first compound 2.53 µM): 0.717 | relative viability ([12]; first compound 8 µM): 0.54 | relative viability ([13]; first compound 0.08 µM): 0.632 | relative viability ([13]; first compound 0.253 µM): 0.544 | relative viability ([13]; first compound 0.8 µM): 0.512 | relative viability ([13]; first compound 2.53 µM): 0.651 | relative viability ([13]; first compound 8 µM): 0.562 | relative viability ([14]; first compound 0.08 µM): 0.295 | relative viability ([14]; first compound 0.253 µM): 0.277 | relative viability ([14]; first compound 0.8 µM): 0.245 | relative viability ([14]; first compound 2.53 µM): 0.273 | relative viability ([14]; first compound 8 µM): 0.266 | relative viability ([15]; first compound 0.08 µM): 0.325 | relative viability ([15]; first compound 0.253 µM): 0.0459 | relative viability ([15]; first compound 0.8 µM): 0.224 | relative viability ([15]; first compound 2.53 µM): 0.171 | relative viability ([15]; first compound 8 µM): 0.462 | relative viability ([16]; first compound 0.08 µM): 0.488 | relative viability ([16]; first compound 0.253 µM): 0.404 | relative viability ([16]; first compound 0.8 µM): 0.355 | relative viability ([16]; first compound 2.53 µM): 0.424 | relative viability ([16]; first compound 8 µM): 0.479 | relative viability ([17]; first compound 0.08 µM): 0.641 | relative viability ([17]; first compound 0.253 µM): 0.662 | relative viability ([17]; first compound 0.8 µM): 0.758 | relative viability ([17]; first compound 8 µM): 0.708 | relative viability ([18]; first compound 0.08 µM): 0.755 | relative viability ([18]; first compound 0.253 µM): 0.738 | relative viability ([18]; first compound 0.8 µM): 0.762 | relative viability ([18]; first compound 2.53 µM): 0.681 | relative viability ([18]; first compound 8 µM): 0.703 | relative viability ([19]; first compound 0.08 µM): 0.758 | relative viability ([19]; first compound 0.253 µM): 0.892 | relative viability ([19]; first compound 0.8 µM): 1.08 | relative viability ([19]; first compound 2.53 µM): 0.762 | relative viability ([19]; first compound 8 µM): 0.997 | relative viability ([20]; first compound 0.08 µM): 0.825 | relative viability ([20]; first compound 0.253 µM): 0.875 | relative viability ([20]; first compound 0.8 µM): 0.824 | relative viability ([20]; first compound 2.53 µM): 0.781 | relative viability ([20]; first compound 8 µM): 0.788 | relative viability ([21]; first compound 0.08 µM): 0.945 | relative viability ([21]; first compound 0.253 µM): 0.982 | relative viability ([21]; first compound 0.8 µM): 1.04 | relative viability ([21]; first compound 2.53 µM): 0.923 | relative viability ([21]; first compound 8 µM): 0.753 | relative viability ([22]; first compound 0.08 µM): 0.285 | relative viability ([22]; first compound 0.253 µM): 0.502 | relative viability ([22]; first compound 0.8 µM): 0.494 | relative viability ([22]; first compound 2.53 µM): 0.369 | relative viability ([22]; first compound 8 µM): 0.473
